# Experimental data published in US12509446B2, “FYN and VEGFR2 kinase inhibitors” (ROTTAPHARM BIOTECH S.R.L., priority 2019, dated 2025).
# What was measured:
# VEGFR2 = VEGFR2 (Homo sapiens (Human), UniProt P35968); experiment: In vitro VEGFR2 kinase activity assay (Eurofins Cerep); type: biochemical; settings: read-out: VEGFR2 KINASE INHIBITION IC50
# Summary of the method: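 Contract biochemical kinase assay on human VEGFR2 with inhibitors at 10^−8 to 10^−5 M final (some re-tested from 10^−9 M). Activity expressed as percent of no-compound control; IC50 by non-linear regression of mean replicate inhibition curves.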
# IL-6 = experiment: Gene expression in rat articular chondrocytes under IL-1β stimulation, IL-6; type: cell-based; settings: for IL-6 gene expression, percentage of inhibitory effect at the highest non toxic concentration: 6 h
# Procedure: (§1) For gene expression analysis, 10 days after plating, the medium was changed and substituted with DMEM GlutaMAX I 0.4% to synchronize the cells. The cells were then co-treated in DMEM GlutaMAX I 0.4% with different concentrations of the test compounds and […] at a final concentration of 2 ng/ml for 6 h and 24 h. The test compound concentrations used have been chosen on the basis of the toxicity data.
# (§2) At the end of the incubation, the supernatant was discarded, the cell were washed with cold PBS1X and scraped with 200 μl of RNA lysis buffer 1X (Nucleic Acid Purification Lysis Solution, Applied Biosystems).
# (§3) Total RNA was purified using ABI Prism™ 6100 Nucleic Acid PrepStation (Applied Biosystems) following manufacturer's instructions.
# (§4) Total RNA was retrotranscribed using the High-Capacity cDNA Archive Kit (Applied Biosystems-Thermo Fisher Scientific) following manufacturer's instructions.
# (§5) The specific probes and primers for RealTime PCR were from Applied Biosystems (Thermo Fisher Scientific) as Assays-on-Demand™, while the probe and primers for the endogenous control 18S was a PDAR (Pre-Developed TaqMan® Assay Reagents—Applied Biosystems-Thermo Fisher Scientific).
# (§6) The assays were designed to amplify target cDNA without amplifying genomic DNA.
# (§7) Gene expression analysis for IL-1β, IL-6 and ADAMTS-5 were performed at 6 h incubation, while the gene expression analysis for MMP3, MMP13 and COX2 were performed at 24 h incubation.
# (§8) For each compound the maximal concentration tested was dependent on the toxicity results obtained on primary rat chondrocytes.
# (§9) The data analysis, with the normalisation on the amplified values for the 18S was done following the specific instruction of Applied Biosystems for the relative quantification of gene expression.
# MMP13 = experiment: Gene expression in rat articular chondrocytes under IL-1β stimulation, MMP13; type: cell-based; settings: for IC50: Rattus norvegicus, Chondrocyte, 24 h incubation; for MMP13 gene expression, percentage of inhibitory effect at the highest non toxic concentration: 24 h
# Procedure: as §1, §2, §3, §4, §5, §6, §7, §8, §9
# IL-1β = experiment: Gene expression in rat articular chondrocytes under IL-1β stimulation, IL-1β; type: cell-based; settings: for IL-1β gene expression, percentage of inhibitory effect at the highest non toxic concentration: 6 h; for IC50: Rattus norvegicus, Chondrocyte, 6 h incubation
# Procedure: as §1, §2, §3, §4, §5, §6, §7, §8, §9
# [1] = test system: rat primary articular chondrocytes; experiment: Toxicity analysis (MTT) in rat primary chondrocytes; settings: for First toxic concentration at 24 h: rat primary chondrocytes
# Procedure: Purified chondrocytes were resuspended in DMEM glutaMAX 10% and plated in a 96X well plate for toxicity analysis and in a 6X well plate for gene expression analysis.
# For toxicity analysis cells were then treated with the different compounds for 24 and 48 h. At the end of the incubation time, the medium was removed and was substituted with a mixture 10:1 of DMEM glutaMAX 10%—MTT (2 mg/ml) for 1 h at 37° C. in the cell incubator. After this incubation, the precipitated salt was dissolved with 100 μl of DMSO and the plate was read at 540 nm. The toxicity analysis were performed to decide the maximal non toxic concentration of each compound used in the gene expression assay.
# COX2 = experiment: Gene expression in rat articular chondrocytes under IL-1β stimulation, COX2; type: cell-based; settings: for COX2 gene expression, percentage of inhibitory effect at the highest non toxic concentration: 24 h
# Fyn = Fyn (Homo sapiens (Human), UniProt P06241); experiment: Z′-LYTE in vitro Fyn kinase activity assay; type: biochemical; settings: ATP 50 μM; read-out: FYN KINASE INHIBITION IC50
# Summary of the method: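 Z′-LYTE FRET format with full-length active Fyn in 50 mM Hepes pH 7.5, 10 mM MgCl2, 1 mM EGTA, 0.01% Brij-35, 1% DMSO final; 60 minutes at 25° C. Percent phosphorylation from 0% and 100% phosphorylation controls; IC50 by non-linear curve fitting of percent inhibition.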
# [2] = test system: bovine nasal septum cartilage; experiment: Inhibition of cartilage degradation (GAG release) induced by IL-1α in a bovine in vitro model; type: cell-based; set-up: key to Bovine cartilage degradation induced by IL-1α, no effect: ne: no effect
# Procedure: Nasal septum cartilage was collected from an eight months-old male bovine in a local slaughterhouse.
# Tissue was sprayed with ethanol 70% and immediately put in sterile PBS with Antibiotic-Antimycotic stabilized solution (PBS-AASS). It was cut in order to obtain small punches (diameter 2 mm, 1 mm-thick). washed with sterile PBS-AASS, the slices were transferred in a 96X well plate (one piece per well) in DMEM 10%+AASS. 48 h later the cartilage was stimulated in white DMEM+0.1% BSA+AASS with IL-1α […] in the absence or presence of the studied compounds.
# The compounds concentration used in this analysis was chosen depending on the toxicity results obtained in rat primary chondrocytes at 48 h of incubation.
# After 48 h stimulation, the culture medium was collected and stored at −80° C. The cartilage punches were digested with papain at 65° C. for 2 h in phosphate buffer (0.05M pH 6.5 with 2 mM N-acetil-L-cisteine and 2 mM EDTA).
# The glycosaminoglycan (GAG) determination was done by a colorimetric assay with 1,9 dimethyl methylene blue (DMB).
# Digested cartilage samples were diluted in PBS-BSA 1%. To 100 μl of diluted samples or standard we added 100 μl DMB 2X. After 5-20 min incubation the samples were read at 590 nm (Titertek Multiscan Plus).
# The cartilage degradation induced by IL-1α was expressed as: GAG (medium)/total GAG (medium+cartilage)×100
# MMP3 = experiment: Gene expression in rat articular chondrocytes under IL-1β stimulation, MMP3; type: cell-based; set-up: key to MMP3 gene expression, no effect: ne: no effect; settings: for IC50: Rattus norvegicus, Chondrocyte, 24 h incubation
# Procedure: as §1, §2, §3, §4, §5, §6, §7, §8, §9
# NF-kB = experiment: Gene reporter (GR) assay, NF-kB activation after TNFα in JB6 Cl 41-5a (P+) cells; type: cell-based, murine; settings: Mus musculus, JB6 Cl 41-5a, TNFα 2 ng/ml, non toxic concentrations; read-out: Gene reporter (GR) inhibition IC50
# Summary of the method: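 TNFα (2 ng/ml, 4 h) stimulation followed 1 h compound pre-treatment in NF-kB-luciferase-transfected mouse JB6 (P+) epithelial cells. Reporter luminescence and cell viability were read together, each condition in quadruplicate.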
# ADAMTS-5 = experiment: Gene expression in rat articular chondrocytes under IL-1β stimulation, ADAMTS-5; type: cell-based; settings: for ADAMTS-5 gene expression, percentage of inhibitory effect at the highest non toxic concentration: 6 h
# Procedure: as §1, §2, §3, §4, §5, §6, §7, §8, §9
# [3] = Bos taurus, read-out: Bovine cartilage degradation induced by IL-1α, % inhibitory effect at max concentration
# [4] = Rattus norvegicus, Chondrocyte, 6 h incubation
# Fyn, sequence (P06241 whole entry): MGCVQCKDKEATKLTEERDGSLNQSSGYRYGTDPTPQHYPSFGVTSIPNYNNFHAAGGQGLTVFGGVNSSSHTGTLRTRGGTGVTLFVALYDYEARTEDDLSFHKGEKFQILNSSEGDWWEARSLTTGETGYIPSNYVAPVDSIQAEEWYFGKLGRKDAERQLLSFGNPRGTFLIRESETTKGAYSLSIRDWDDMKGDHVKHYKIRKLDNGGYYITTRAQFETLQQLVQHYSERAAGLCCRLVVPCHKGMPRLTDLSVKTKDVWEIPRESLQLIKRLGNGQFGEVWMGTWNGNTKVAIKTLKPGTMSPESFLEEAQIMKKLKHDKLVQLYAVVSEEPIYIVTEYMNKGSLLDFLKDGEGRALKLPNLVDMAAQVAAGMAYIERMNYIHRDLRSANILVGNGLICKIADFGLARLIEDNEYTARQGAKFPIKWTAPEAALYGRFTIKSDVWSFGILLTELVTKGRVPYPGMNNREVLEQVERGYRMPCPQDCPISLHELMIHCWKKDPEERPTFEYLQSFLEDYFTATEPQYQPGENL
# VEGFR2, sequence (P35968 20-1356): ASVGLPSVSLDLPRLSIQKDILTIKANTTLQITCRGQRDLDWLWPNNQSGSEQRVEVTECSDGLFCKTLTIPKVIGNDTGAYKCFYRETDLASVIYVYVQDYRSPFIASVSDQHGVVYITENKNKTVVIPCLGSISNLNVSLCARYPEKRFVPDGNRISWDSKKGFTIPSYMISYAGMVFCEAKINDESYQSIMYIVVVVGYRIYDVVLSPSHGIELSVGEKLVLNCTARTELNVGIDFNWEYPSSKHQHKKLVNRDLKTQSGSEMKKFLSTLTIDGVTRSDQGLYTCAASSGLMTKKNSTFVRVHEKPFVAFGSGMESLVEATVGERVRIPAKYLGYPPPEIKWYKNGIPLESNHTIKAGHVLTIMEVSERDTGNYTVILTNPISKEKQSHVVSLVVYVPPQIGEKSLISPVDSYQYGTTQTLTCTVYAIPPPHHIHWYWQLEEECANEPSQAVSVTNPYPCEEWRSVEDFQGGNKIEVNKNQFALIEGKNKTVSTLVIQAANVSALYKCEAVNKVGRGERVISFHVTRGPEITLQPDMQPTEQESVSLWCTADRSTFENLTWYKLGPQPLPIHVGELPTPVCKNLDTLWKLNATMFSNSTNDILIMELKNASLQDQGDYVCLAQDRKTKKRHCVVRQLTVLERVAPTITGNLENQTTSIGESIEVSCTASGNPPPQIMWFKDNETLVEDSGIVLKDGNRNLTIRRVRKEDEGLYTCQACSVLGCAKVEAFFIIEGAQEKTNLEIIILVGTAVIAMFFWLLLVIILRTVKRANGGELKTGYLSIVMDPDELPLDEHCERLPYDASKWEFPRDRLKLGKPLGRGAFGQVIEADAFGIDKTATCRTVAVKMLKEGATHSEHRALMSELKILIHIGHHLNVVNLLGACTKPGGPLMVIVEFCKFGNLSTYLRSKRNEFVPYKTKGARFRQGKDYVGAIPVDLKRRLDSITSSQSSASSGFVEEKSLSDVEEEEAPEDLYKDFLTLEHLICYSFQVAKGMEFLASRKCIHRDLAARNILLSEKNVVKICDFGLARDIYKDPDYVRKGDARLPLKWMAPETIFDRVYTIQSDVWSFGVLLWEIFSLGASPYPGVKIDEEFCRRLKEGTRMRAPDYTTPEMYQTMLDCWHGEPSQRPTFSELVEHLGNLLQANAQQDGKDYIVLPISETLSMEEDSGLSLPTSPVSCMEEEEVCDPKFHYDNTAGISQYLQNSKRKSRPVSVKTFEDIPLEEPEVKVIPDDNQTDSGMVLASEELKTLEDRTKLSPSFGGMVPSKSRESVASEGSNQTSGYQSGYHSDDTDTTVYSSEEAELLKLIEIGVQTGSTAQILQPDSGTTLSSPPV
Compound,IC50 (VEGFR2),First toxic concentration at 48 h in rat primary chondrocytes [1],First toxic concentration at 24 h [1],"COX2 gene expression, percentage of inhibitory effect at the highest non toxic concentration (COX2; 10 μM)",IC50 (Fyn),IC50 (MMP3),IC50 (NF-kB),"ADAMTS-5 gene expression, percentage of inhibitory effect at the highest non toxic concentration (ADAMTS-5; 10 μM)","IL-6 gene expression, percentage of inhibitory effect at the highest non toxic concentration (IL-6; 3 μM)","inhibition at 3 µM [2, 3]",other results
"CC(C)(C#N)c1cc(C(=O)Nc2ccc(F)c(CCc3cc(Nc4cnccn4)[nH]n3)c2)ccn1 [Compound 11, 2-(2-cyanopropan-2-yl)-N-(4-fluoro-3-(2-(5-(pyrazin-2-ylamino)-1H-pyrazol-3-yl)ethyl)phenyl)isonicotinamide]",< 10 nM,>10 µM,>10 µM,10 μM 100%,21 nM,2200 nM,785 nM,10 μM 100%,,,"IL-6 gene expression, percentage of inhibitory effect at the highest non toxic concentration (IL-6; 10 μM): 10 μM 100%; IC50 (MMP13): 2400 nM; IL-1β gene expression, percentage of inhibitory effect at the highest non toxic concentration (IL-1β; 10 μM): 10 μM 100%; inhibition at 10 µM [2, 3]: 89%"
"CS(=O)(=O)c1cccc(C(=O)Nc2ccc(F)c(CCc3cc(Nc4cnccn4)[nH]n3)c2)c1 [Compound 12, N-(4-fluoro-3-(2-(5-(pyrazin-2-ylamino)-1H-pyrazol-3-yl)ethyl)phenyl)-3-(methylsulfonyl)benzamide]",< 10 nM,10 µM,>10 µM,10 μM 63%,24 nM,,4510 nM,10 μM 57%,,,"IC50 (IL-6; [4]): 2600 nM; MMP13 gene expression, percentage of inhibitory effect at the highest non toxic concentration (MMP13; 10 μM): 10 μM 34%; IC50 (IL-1β): 3900 nM; Bovine cartilage degradation induced by IL-1α, no effect [2]: ne; MMP3 gene expression, no effect (MMP3; 24 h): ne"
"O=C(Nc1ccc(F)c(CCc2cc(Nc3cnccn3)[nH]n2)c1)c1cccc(C(F)(F)F)c1 [Compound 13, N-(4-fluoro-3-(2-(5-(pyrazin-2-ylamino)-1H-pyrazol-3-yl)ethyl)phenyl)-3-(trifluoromethyl) benzamide]",< 10 nM,3 µM,3 µM,,26 nM,300 nM,308 nM,,,,"IL-6 gene expression, percentage of inhibitory effect at the highest non toxic concentration (IL-6; 1 μM): 1 μM 100%; MMP13 gene expression, percentage of inhibitory effect at the highest non toxic concentration (MMP13; 1 μM): 1 μM 94%; IL-1β gene expression, percentage of inhibitory effect at the highest non toxic concentration (IL-1β; 1 μM): 1 μM 96%; COX2 gene expression, percentage of inhibitory effect at the highest non toxic concentration (COX2; 1 μM): 1 μM 96%; inhibition at 1 µM ([2]; Bos taurus, 1 μM, read-out: Bovine cartilage degradation induced by IL-1α, % inhibitory effect at max concentration): 97%; Inhibitory effect on the GAG release ([2]; at max concentration): 95-100%; ADAMTS-5 gene expression, percentage of inhibitory effect at the highest non toxic concentration (ADAMTS-5; 1 μM): 1 μM 88%"
"Cc1cnc(Nc2cc(CCc3cc(NC(=O)c4cccc(C(F)(F)F)c4)ccc3F)n[nH]2)c(C)n1 [Compound 14, N-(3-(2-(5-((3,5-dimethylpyrazin-2-yl)amino)-1H-pyrazol-3-yl)ethyl)-4-fluorophenyl)-3-(trifluoromethyl)benzamide]",10 nM,10 µM,10 µM,,31 nM,,487 nM,,3 μM 100%,97%,"MMP13 gene expression, percentage of inhibitory effect at the highest non toxic concentration (MMP13; 3 μM): 3 μM 99%; IL-1β gene expression, percentage of inhibitory effect at the highest non toxic concentration (IL-1β; 3 μM): 3 μM 99%; COX2 gene expression, percentage of inhibitory effect at the highest non toxic concentration (COX2; 3 μM): 3 μM 100%; MMP3 gene expression, percentage of inhibitory effect at the highest non toxic concentration (MMP3; 3 μM, 24 h): 3 μM 95%; ADAMTS-5 gene expression, percentage of inhibitory effect at the highest non toxic concentration (ADAMTS-5; 3 μM): 3 μM 99%"
"CCN1Cc2cnc(Nc3cc(CCc4cc(NC(=O)c5cccc(C(F)(F)F)c5)ccc4C)n[nH]3)cc2C1 [Compound 17, N-(3-(2-(5-((2-ethyl-2,3-dihydro-1H-pyrrolo[3,4-c]pyridin-6-yl)amino)-1H-pyrazol-3-yl)ethyl)-4-methylphenyl) -3-(trifluoromethyl)benzamide]",< 10 nM,>10 µM,>10 µM,10 μM 96%,8 nM,,352 nM,10 μM 62%,,,"IL-6 gene expression, percentage of inhibitory effect at the highest non toxic concentration (IL-6; 10 μM): 10 μM 100%; MMP13 gene expression, percentage of inhibitory effect at the highest non toxic concentration (MMP13; 10 μM): 10 μM 100%; IL-1β gene expression, percentage of inhibitory effect at the highest non toxic concentration (IL-1β; 10 μM): 10 μM 99%; inhibition at 10 µM [2, 3]: 100%; MMP3 gene expression, percentage of inhibitory effect at the highest non toxic concentration (MMP3; 10 μM, 24 h): 10 μM 92%"
"Cc1ccc(NC(=O)c2cccc(C(F)(F)F)c2)cc1CCc1cc(NC(=O)c2ccc(F)cc2)[nH]n1 [Compound 19, N-(3-(2-(3-(4-fluorobenzamido)-1H-pyrazol-5-yl)ethyl)-4-methylphenyl)-3-(trifluoromethyl)benzamide]",110 nM,10 µM,10 µM,,69 nM,600 nM,883 nM,,3 μM 99%,83%,"IC50 (MMP13): 500 nM; IC50 (IL-1β): 100 nM; IC50 (COX2; Rattus norvegicus, Chondrocyte, 24 h incubation): 400 nM; IC50 (ADAMTS-5; [4]): 100 nM"
"Cc1ccc(NC(=O)c2cccc(C(F)F)c2)cc1CCc1cc(Nc2cnccn2)[nH]n1 [Compound 33, 3-(difluoromethyl)-N-(4-methyl-3-(2-(5-(pyrazin-2-ylamino)-1H-pyrazol-3-yl)ethyl)phenyl) benzamide]",< 10 nM,10 µM,10 µM,,16 nM,,363 nM,,3 μM 100%,91%,"MMP13 gene expression, percentage of inhibitory effect at the highest non toxic concentration (MMP13; 3 μM): 3 μM 94%; IL-1β gene expression, percentage of inhibitory effect at the highest non toxic concentration (IL-1β; 3 μM): 3 μM 93%; COX2 gene expression, percentage of inhibitory effect at the highest non toxic concentration (COX2; 3 μM): 3 μM 89%; MMP3 gene expression, percentage of inhibitory effect at the highest non toxic concentration (MMP3; 3 μM, 24 h): 3 μM 81%; ADAMTS-5 gene expression, percentage of inhibitory effect at the highest non toxic concentration (ADAMTS-5; 3 μM): 3 μM 90%"
